Experimental data as given in the kinase profiling compilation of Christmann-Franck et al. (2016).

How the values were obtained:
Assay in all cases: SelectScreen, TR FRET
Conditions in all cases: compound 5.0 µM
[1] = target: EPHB1 (human) (UniProt P54762)
[2] = target: STK4 (human) (UniProt Q13043)
[3] = target: AKT2 (human) (UniProt P31751)
[4] = target: PHKG1 (human) (UniProt Q16816)
[5] = target: MERTK (human) (UniProt Q12866)
[6] = target: RPS6KA1 KD1 KD2 (human) (UniProt Q15418)
[7] = target: IKBKB (human) (UniProt O14920)
[8] = target: SRPK2 (human) (UniProt P78362)
[9] = target: LYN (human) (UniProt P07948)
[10] = target: TYRO3 (human) (UniProt Q06418)
[11] = target: MST4 (human) (UniProt Q9P289)
[12] = target: EPHB2 (human) (UniProt P29323)
[13] = target: CAMK2B (human) (UniProt Q13554)
[14] = target: ITK (human) (UniProt Q08881)
[15] = target: STK24 (human) (UniProt Q9Y6E0)
[16] = target: PLK1 (human) (UniProt P53350)
[17] = target: ABL2 (human) (UniProt P42684)
[18] = target: MAPKAPK2 (human) (UniProt P49137)
Sequence of MAPKAPK2 (human) (P49137 whole entry, looked up): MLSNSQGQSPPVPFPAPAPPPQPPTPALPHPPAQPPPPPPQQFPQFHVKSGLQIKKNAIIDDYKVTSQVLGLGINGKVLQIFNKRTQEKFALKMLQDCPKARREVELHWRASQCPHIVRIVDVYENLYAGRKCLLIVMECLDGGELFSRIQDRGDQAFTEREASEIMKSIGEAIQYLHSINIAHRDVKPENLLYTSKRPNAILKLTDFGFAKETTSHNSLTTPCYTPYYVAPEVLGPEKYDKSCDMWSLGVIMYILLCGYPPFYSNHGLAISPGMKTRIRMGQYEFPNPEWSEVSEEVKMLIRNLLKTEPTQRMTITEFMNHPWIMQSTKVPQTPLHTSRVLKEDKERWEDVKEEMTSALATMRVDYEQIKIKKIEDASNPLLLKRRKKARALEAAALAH

[19] = target: SYK (human) (UniProt P43405)
[20] = target: AURKA (human) (UniProt O14965)
Sequence of AURKA (human) (O14965 whole entry, looked up): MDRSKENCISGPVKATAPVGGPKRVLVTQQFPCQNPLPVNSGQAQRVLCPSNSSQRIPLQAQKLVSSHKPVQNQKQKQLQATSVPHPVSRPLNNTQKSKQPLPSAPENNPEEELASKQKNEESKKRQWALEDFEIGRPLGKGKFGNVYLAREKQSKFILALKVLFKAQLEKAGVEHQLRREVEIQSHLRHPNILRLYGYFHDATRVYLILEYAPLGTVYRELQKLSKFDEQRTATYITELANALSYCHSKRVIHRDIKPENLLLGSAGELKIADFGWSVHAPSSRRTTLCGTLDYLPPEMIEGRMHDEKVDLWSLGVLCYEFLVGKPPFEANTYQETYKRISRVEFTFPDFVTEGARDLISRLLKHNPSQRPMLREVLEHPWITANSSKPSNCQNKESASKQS

[21] = target: DYRK3 (human) (UniProt O43781)
[22] = target: MINK1 (human) (UniProt Q8N4C8)
[23] = target: PAK6 (human) (UniProt Q9NQU5)
Sequence of PAK6 (human) (Q9NQU5 whole entry, looked up): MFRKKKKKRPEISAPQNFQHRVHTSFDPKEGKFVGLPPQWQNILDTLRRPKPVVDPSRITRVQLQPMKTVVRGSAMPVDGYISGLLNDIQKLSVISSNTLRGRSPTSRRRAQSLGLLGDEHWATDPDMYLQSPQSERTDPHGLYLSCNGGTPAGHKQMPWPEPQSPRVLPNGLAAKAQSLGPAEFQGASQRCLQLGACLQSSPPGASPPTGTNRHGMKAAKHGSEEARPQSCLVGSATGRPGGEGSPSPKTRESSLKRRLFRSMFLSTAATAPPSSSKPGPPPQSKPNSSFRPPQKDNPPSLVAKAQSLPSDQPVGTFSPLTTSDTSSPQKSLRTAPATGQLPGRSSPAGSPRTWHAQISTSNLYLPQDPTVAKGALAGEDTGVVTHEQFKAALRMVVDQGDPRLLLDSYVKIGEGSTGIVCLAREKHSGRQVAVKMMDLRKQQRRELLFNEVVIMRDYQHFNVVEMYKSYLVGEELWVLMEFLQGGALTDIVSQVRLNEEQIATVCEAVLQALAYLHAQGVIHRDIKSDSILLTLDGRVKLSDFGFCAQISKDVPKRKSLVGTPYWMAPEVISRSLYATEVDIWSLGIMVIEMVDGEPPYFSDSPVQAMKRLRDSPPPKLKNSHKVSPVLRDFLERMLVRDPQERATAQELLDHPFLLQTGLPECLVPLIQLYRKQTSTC

[24] = target: EGFR (human) (UniProt P00533)
[25] = tested on: PDGFRA (human), P16234 [D842V]
[26] = target: PRKCI (human) (UniProt P41743)
[27] = target: CSNK1E (human) (UniProt P49674)
[28] = tested on: FLT3 (human), P36888 [D835Y]
[29] = target: RET (human) (UniProt P07949)
[30] = target: CAMK1D (human) (UniProt Q8IU85)
[31] = target: KDR (human) (UniProt P35968)
[32] = target: MAPK14 (human) (UniProt Q16539)
[33] = target: TSSK2 (human) (UniProt Q96PF2)
[34] = target: SGK3 (human) (UniProt Q96BR1)
[35] = target: PTK6 (human) (UniProt Q13882)
Sequence of PTK6 (human) (Q13882 whole entry, looked up): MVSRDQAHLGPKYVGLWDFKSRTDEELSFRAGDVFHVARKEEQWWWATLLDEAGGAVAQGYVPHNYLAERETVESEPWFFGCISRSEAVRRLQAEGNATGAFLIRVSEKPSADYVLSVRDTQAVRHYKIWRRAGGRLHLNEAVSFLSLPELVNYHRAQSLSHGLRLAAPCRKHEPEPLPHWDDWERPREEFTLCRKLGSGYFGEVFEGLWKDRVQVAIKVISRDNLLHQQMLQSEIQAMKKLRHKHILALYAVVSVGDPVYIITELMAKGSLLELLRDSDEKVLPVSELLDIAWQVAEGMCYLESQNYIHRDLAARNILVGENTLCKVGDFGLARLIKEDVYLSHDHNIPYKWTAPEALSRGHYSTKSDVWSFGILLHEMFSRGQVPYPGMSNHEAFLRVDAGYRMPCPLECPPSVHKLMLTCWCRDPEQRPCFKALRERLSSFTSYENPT

[36] = target: PRKCD (human) (UniProt Q05655)
[37] = target: RPS6KA4 KD1 KD2 (human) (UniProt O75676)
Sequence of RPS6KA4 KD1 KD2 (human) (O75676 whole entry, looked up): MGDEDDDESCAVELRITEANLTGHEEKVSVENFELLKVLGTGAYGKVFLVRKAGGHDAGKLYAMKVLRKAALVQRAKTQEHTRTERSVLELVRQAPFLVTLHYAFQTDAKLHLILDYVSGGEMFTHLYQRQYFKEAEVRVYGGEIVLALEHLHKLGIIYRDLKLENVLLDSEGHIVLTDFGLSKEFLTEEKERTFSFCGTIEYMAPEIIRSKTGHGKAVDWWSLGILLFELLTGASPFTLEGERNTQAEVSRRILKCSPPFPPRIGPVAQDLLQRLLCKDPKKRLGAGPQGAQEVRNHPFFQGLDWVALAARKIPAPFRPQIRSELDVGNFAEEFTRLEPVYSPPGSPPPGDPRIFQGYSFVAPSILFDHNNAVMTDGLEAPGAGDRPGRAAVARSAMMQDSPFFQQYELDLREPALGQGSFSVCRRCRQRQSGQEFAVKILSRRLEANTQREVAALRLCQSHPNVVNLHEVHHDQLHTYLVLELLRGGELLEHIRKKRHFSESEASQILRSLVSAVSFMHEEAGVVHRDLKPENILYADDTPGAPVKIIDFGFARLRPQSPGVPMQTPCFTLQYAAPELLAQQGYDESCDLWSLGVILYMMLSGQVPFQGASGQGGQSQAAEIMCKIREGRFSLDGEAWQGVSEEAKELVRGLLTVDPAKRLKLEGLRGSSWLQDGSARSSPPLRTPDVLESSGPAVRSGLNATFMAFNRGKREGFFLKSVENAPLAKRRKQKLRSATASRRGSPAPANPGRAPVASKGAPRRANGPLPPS

[38] = target: GSK3B (human) (UniProt P49841)
[39] = target: PAK3 (human) (UniProt O75914)
Sequence of PAK3 (human) (O75914 whole entry, looked up): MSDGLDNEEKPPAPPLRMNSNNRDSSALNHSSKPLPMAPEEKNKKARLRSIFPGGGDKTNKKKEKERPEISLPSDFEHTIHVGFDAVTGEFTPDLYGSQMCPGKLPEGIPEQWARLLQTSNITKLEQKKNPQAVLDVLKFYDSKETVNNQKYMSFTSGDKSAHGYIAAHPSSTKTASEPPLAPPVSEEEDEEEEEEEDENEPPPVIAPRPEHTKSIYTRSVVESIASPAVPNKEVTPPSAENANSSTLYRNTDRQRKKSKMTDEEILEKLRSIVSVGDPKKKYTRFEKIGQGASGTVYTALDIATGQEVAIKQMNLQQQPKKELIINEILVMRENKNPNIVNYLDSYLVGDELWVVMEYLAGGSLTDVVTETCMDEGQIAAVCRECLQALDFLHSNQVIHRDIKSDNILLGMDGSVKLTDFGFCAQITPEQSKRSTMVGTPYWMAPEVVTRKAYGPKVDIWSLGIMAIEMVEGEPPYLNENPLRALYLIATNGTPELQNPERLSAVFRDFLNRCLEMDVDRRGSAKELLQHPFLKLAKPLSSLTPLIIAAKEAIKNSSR

[40] = target: EPHA2 (human) (UniProt P29317)

Sequence of RPS6KA1 KD1 KD2 (human) (Q15418 whole entry, looked up): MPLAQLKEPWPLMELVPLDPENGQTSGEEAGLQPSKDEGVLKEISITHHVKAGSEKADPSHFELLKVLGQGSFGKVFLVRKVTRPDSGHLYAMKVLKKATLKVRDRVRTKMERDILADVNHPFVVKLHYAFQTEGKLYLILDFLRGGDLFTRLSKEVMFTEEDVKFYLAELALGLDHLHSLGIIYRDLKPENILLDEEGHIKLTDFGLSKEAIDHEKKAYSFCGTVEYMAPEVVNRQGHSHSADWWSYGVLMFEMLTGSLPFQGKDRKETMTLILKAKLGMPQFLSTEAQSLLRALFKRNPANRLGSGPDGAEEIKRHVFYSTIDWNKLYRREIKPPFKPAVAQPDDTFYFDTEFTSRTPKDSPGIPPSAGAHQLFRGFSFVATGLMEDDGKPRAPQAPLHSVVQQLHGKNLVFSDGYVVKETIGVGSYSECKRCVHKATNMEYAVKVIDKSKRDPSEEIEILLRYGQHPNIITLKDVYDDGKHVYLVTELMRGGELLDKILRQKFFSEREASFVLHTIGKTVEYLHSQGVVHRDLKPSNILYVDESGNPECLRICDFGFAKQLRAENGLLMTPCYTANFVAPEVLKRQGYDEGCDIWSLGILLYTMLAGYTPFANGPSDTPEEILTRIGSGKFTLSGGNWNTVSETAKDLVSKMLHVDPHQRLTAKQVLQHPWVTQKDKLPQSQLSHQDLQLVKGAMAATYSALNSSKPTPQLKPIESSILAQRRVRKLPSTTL
Sequence of MERTK (human) (Q12866 whole entry, looked up): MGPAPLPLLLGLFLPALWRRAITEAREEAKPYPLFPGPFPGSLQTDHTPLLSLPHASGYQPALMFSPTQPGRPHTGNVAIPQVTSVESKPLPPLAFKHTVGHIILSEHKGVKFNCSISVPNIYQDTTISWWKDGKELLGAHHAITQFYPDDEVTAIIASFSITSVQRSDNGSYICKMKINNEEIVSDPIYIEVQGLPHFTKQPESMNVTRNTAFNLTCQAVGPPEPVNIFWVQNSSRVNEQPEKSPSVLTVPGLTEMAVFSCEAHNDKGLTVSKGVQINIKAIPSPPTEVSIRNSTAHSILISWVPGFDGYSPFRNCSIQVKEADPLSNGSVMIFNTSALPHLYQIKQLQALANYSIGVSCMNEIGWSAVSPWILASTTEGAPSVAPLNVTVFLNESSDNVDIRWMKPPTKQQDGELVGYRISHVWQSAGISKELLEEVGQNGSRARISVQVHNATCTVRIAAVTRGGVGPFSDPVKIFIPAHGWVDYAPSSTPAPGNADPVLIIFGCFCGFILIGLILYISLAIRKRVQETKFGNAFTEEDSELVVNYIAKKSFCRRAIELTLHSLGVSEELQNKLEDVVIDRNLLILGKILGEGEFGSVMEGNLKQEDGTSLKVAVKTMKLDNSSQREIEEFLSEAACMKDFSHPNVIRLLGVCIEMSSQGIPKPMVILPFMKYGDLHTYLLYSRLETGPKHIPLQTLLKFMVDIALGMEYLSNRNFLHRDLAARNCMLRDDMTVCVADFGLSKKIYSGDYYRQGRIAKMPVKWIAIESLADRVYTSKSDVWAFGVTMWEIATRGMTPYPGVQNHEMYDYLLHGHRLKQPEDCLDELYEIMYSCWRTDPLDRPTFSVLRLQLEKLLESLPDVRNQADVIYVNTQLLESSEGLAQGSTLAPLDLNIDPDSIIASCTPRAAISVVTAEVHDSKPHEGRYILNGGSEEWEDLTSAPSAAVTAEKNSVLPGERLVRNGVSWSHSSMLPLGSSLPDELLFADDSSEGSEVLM

- inhibition [1]: 3%
- inhibition [2]: 14%
- inhibition [3]: 0%
- inhibition [4]: 11%
- inhibition [5]: 3%
- inhibition [6]: 5%
- inhibition [7]: -2%
- inhibition [8]: 7%
- inhibition [9]: 6%
- inhibition [10]: 3%
- inhibition [11]: -3%
- inhibition [12]: 0%
- inhibition [13]: 9%
- inhibition [14]: 3%
- inhibition [15]: 7%
- inhibition [16]: 1%
- inhibition [17]: -3%
- inhibition [18]: -4%
- inhibition [19]: 1%
- inhibition [20]: 34%
- inhibition [21]: 11%
- inhibition [22]: 4%
- inhibition [23]: 0%
- inhibition [24]: 3%
- inhibition [25]: 1%
- inhibition [26]: 9%
- inhibition [27]: 11%
- inhibition [28]: 11%
- inhibition [29]: -4%
- inhibition [30]: 12%
- inhibition [31]: 3%
- inhibition [32]: 4%
- inhibition [33]: -6%
- inhibition [34]: 20%
- inhibition [35]: -10%
- inhibition [36]: 4%
- inhibition [37]: 6%
- inhibition [38]: 7%
- inhibition [39]: -1%
- inhibition [40]: 8%
SMILES: Nc1cc(C(F)(F)F)c(-c2cc(N3CCOCC3)nc(N3CCOCC3)n2)cn1
